Data: patent US20220249426A1, “INHIBITORS OF THE STING PATHWAY FOR THE TREATMENT OF HIDRADENITIS SUPPURATIVA” (INSERM (INSTITUT NATIONAL DE LA SANTÉ ET DE LA RECHERCH …, priority 2019, published 2022)

Columns and labels:
Assay type in all cases: cell-based, human
HS-ORS [1] = assay: mRNA quantification of ISGs in HS-ORS treated with drugs targeting the IFN pathway; settings: compared to ORS treated with DMSO
Method: FIG. 2: Outer root sheath (ORS) cells from two patients were treated with two drugs (A. Ruxolitinib B. H151) targeting the interferon (IFN) pathway. mRNA levels of MX1, IP10, IFI27 and OAS1 in ORS. HS-ORS (n=2) were treated with two drugs during 24 hours before performing mRNA quantification.
(§1) ORS cells were lysed with RLT Plus Buffer (Qiagen). The RNA was extracted using the RNeasy Plus Mini Kit (Qiagen) according to the manufacturer's protocol then converted into cDNA using the QuantiTect Reverse Transcription Kit (Qiagen) for IFNβ detection and the High-Capacity cDNA Reverse Transcription Kit (Applied Biosystems, Thermo Fisher Scientific) for the expression of other genes.
For real-time PCR analysis of the cDNA samples thus obtained, we prepared custom-made primer sets using the Brilliant II SYBR green QPCR master mix (Agilent Technologies) or Quantitect SYBR Green PCR Kit (Qiagen) according to the manufacturers' protocols. Real-time PCR was performed on a MX3000P device (Agilent). The GAPDH or OAZ1 mRNA level was used for normalization. The relative expression (ΔCt) of mRNAs of each gene was computed using GAPDH or OAZ-1 expression as the reference.
We used two drugs targeting IFN pathway. HS-ORS (n=2) were treated with drugs during 24 hours before performing mRNA quantification. Four ISGs: MX1, OAS1, IFI27 and IP10 were analyzed.

HS-ORS cell populations = assay: DNA fiber spreading analysis of fork progression after siSTING transfection; settings: both HS-ORS cell populations (n=2); siSTING for 2 days before DNA fiber spreading
From the text: (§2) FIG. 1: IFI16-STING pathway induces interferon (IFN) production in outer root sheath (ORS) cells from patients with hidradenitis suppurativa (HS). (A) Relative mRNA levels of IFN-β and IP10 in HS-ORS and HD-ORS cells. **P<0.01; ns, nonsignificant; Mann-Whitney rank-sum test. (B) Nonparametric Spearman correlation analysis of the expression of IFN-β genes and percentage of cells in phase S in HS-ORS cell populations. (C) Levels of IFN-β mRNA in HS-ORS (n=10) and HD-ORS (n=4) cell populations transfected with siSTING for 2 days before IFN-β mRNA quantification. (D) IFN-β mRNA levels in HS-ORS cell populations (n=3) transfected with siRNA-cGAS or siRNA-IFI16 for 2 days before IFN-β mRNA quantification. (E) DNA fiber spreading analysis of fork progression in HS-ORS cell populations (n=2) transfected with siSTING for 2 days before DNA fiber spreading. ****P<0.0001, Mann-Whitney rank-sum test. […] Quantification of phospho-IRF3 signal intensity in HS-ORS (n=7) and HD (n=5). […]
DNA fiber spreading was performed as described by Jackson and Pombo (16). […] The DNA fiber images thus acquired were analyzed using MetaMorph Microscopy Automation and Image Analysis Software (Molecular Devices, San Jose, Calif.) and the results were evaluated statistically by applying the two-sided Mann-Whitney rank-sum test with GraphPad Prism software (GraphPad, La Jolla, Calif.).

HS-ORS cells = assay: IFN-β and ISG mRNA quantification after siRNA transfection of HS-ORS cells; settings: compared to scramble siRNA
From the text: as §2
as §1, with “genes. […]” for “genes.”

HD-ORS = assay: Western blot analysis of phospho-IRF3 after siRNA transfection of HD-ORS; settings: compared to scramble siRNA
From the text: (§3) FIG. 1: IFI16-STING pathway induces interferon (IFN) production in outer root sheath (ORS) cells from patients with hidradenitis suppurativa (HS). (A) Relative mRNA levels of IFN-β and IP10 in HS-ORS and HD-ORS cells. **P<0.01; ns, nonsignificant; Mann-Whitney rank-sum test. (B) Nonparametric Spearman correlation analysis of the expression of IFN-β genes and percentage of cells in phase S in HS-ORS cell populations. (C) Levels of IFN-β mRNA in HS-ORS (n=10) and HD-ORS (n=4) cell populations transfected with siSTING for 2 days before IFN-β mRNA quantification. (D) IFN-β mRNA levels in HS-ORS cell populations (n=3) transfected with siRNA-cGAS or siRNA-IFI16 for 2 days before IFN-β mRNA quantification. (E) DNA fiber spreading analysis of fork progression in HS-ORS cell populations (n=2) transfected with siSTING for 2 days before DNA fiber spreading. ****P<0.0001, Mann-Whitney rank-sum test. (F) Western blot analysis of the levels of phospho-IRF3 in ORS transfected with siSTING or siCtrl. Quantification of phospho-IRF3 signal intensity in HS-ORS (n=7) and HD (n=5).
(§4) The following siRNAs were used: siSTING (CUGCAUCCAUCCAUCCCGUdTdT; SEQ ID NO:1, Sigma #Hs01_00031038, Sigma, St Louis, […].), siIFI16 (L-020004-00-0005, ON-TARGETplus Human IFI16 siRNA SMARTpool, Horizon Discovery, Waterbeach, UK), and sicGAS (L-015607-02-0005, ON-TARGETplus Human MB21D1 siRNA SMARTpool, Horizon Discovery). […]

HD-ORS cells = assay: IFN-β and ISG mRNA quantification after siRNA transfection of HD-ORS cells; settings: compared to scramble siRNA
From the text: as §2
as §1, with “genes. […]” for “genes.”

HS-ORS [2] = assay: Western blot analysis (phospho-IRF3, cGAS protein) after siRNA transfection of HS-ORS; settings: compared to scramble siRNA
From the text: as §3, §4

[3] = first patient, ORS treated 24 hours

Compound | levels of IFI27 transcripts (HS-ORS [1]; HS-ORS (n=2), 24 hours) | levels of IP10 transcripts (HS-ORS [1]; HS-ORS (n=2), 24 hours) | levels of MX1 transcripts (HS-ORS [1]; HS-ORS (n=2), 24 hours) | levels of OAS1 transcripts (HS-ORS [1]; HS-ORS (n=2), 24 hours) | levels of IFI27 transcripts (HS-ORS [1]; [3]) | levels of IP10 transcripts (HS-ORS [1]; [3]) | levels of MX1 transcripts (HS-ORS [1]; [3]) | levels of OAS1 transcripts (HS-ORS [1]; [3]) | IdU track length (HS-ORS cell populations) | IFN-β transcript levels (HS-ORS cells; HS-ORS cells, siRNA 10 μM, 2 days) | ISGs transcripts (OAS1 and IP-10) (HS-ORS cells; ORS from HS patients) | IRF3 phosphorylation at Ser396 (pIRF3) (HD-ORS) | IFN-β transcript levels (HD-ORS cells; HD-ORS cells, siRNA 10 μM, 2 days) | ISGs transcripts (OAS1 and IP-10) (HD-ORS cells; ORS from HD) | IRF3 phosphorylation at Ser396 (pIRF3) (HS-ORS [2])
CCc1ccc(NC(=O)Nc2c[nH]c3ccccc23)cc1 [H151, N-(4-Ethylphenyl)-N′-1H-indol-3-yl-urea] | reduced levels | reduced levels | reduced levels | reduced levels | reduced levels | reduced levels | reduced levels | reduced levels |  |  |  |  |  |  | 
siSTING: siRNA CUGCAUCCAUCCAUCCCGUdTdT; SEQ ID NO:1, Sigma #Hs01_00031038 (sense CUGCAUCCAUCCAUCCCGUTT; dTdT overhang, further chemistry not given here) |  |  |  |  |  |  |  |  | decreased to the length observed in HD-ORS cells | lower | decrease | no modification | not associated with a difference | no change | inhibition
